Data from patent publication US20030073132A1, “Method for the screening of alpha2delta-1 subunit binding ligands” (priority 1999, published 2003).
Where “and” joins values, the source holds several entries; their conditions need not be identical. Equal values may be shown once. Read-outs that look alike come from different tables or passages of the source.

What was measured:
[1] = target: porcine α2δ-1b-6His (SEQ ID No 9) (Sus scrofa, UniProt A0A287BIN3); conditions: [3H]gabapentin 10-13 nM
Protocol: Assays were carried out at 21° C. in a final volume of 250 μl in 96-well NEN Ni chelate flash plates. Wells were set up for both ‘total’ and ‘non-specific’ binding. Specific binding was defined as that remaining after subtraction of the average of the ‘non-specific binding’ values from the average of the ‘total’ binding values. Assay components were added in the following order (all reagents were diluted in 10 mM HEPES (pH 7.4 at 21° C.)):
Immediately after adding radioligand, flash plates were loaded in the Packard Top Count scintillation counter to follow the binding time course. Incubation time before the assay was 3 hours. The ‘[^3H] flash plate’ programme (cpm) was used to monitor activity. Specific binding was ˜98% of the ‘total’ value. Imidazole was used in the assay to optimize the specific interaction of the protein's 6His tag with the Ni flashplate.
GraphPad Prism software was used to process competition curve data and determine IC50 and hill slope values. Twelve point competition curves with half log dilution steps of test compounds were used in the experiments.

[2] = target: [^3H]gabapentin site in porcine cortical membranes (Sus scrofa, UniProt O77773); conditions: saturation binding analyses on porcine synaptic plasma cerebral cortex membranes in the presence of L-leucine; cited from earlier work
[3] = read-out: Ki, Flash plate (3 μl protein used, n = 2), single experiments, Ki = IC50/(1 + [L]/KD), 3 h incubation
[4] = read-out: Ki, Flash plate, Mean (geometric), geometric mean of n = 2

porcine α2δ-1b-6His (SEQ ID No 9), sequence (A0A287BIN3 25-1109 limits assumed): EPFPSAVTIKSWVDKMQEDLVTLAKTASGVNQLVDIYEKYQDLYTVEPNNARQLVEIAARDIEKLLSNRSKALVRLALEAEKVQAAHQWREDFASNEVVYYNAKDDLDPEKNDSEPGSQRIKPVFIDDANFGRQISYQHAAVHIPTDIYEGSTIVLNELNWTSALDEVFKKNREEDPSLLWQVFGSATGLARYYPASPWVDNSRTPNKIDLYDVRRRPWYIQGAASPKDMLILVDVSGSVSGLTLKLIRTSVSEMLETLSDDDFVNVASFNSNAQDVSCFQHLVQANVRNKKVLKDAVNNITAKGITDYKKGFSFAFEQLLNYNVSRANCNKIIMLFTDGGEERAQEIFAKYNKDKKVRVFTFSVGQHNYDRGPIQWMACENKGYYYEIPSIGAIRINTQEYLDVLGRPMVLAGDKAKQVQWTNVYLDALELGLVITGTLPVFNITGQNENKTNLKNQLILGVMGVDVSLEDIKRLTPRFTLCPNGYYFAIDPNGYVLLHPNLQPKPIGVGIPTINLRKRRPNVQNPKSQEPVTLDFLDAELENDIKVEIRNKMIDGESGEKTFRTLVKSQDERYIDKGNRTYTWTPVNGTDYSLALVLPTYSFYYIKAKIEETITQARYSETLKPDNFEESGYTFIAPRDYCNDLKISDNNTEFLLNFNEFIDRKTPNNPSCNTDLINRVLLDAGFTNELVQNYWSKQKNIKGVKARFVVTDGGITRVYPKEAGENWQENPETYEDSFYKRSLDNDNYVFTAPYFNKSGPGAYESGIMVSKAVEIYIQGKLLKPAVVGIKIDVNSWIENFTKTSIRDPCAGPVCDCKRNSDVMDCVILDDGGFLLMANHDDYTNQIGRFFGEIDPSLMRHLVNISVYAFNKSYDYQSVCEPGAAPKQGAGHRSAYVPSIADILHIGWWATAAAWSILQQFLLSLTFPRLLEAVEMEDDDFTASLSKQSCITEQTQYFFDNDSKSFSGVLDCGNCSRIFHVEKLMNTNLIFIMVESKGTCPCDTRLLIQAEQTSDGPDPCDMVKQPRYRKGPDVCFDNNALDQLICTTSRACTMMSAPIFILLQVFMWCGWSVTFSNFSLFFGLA
[^3H]gabapentin site in porcine cortical membranes, sequence (O77773 25-1091): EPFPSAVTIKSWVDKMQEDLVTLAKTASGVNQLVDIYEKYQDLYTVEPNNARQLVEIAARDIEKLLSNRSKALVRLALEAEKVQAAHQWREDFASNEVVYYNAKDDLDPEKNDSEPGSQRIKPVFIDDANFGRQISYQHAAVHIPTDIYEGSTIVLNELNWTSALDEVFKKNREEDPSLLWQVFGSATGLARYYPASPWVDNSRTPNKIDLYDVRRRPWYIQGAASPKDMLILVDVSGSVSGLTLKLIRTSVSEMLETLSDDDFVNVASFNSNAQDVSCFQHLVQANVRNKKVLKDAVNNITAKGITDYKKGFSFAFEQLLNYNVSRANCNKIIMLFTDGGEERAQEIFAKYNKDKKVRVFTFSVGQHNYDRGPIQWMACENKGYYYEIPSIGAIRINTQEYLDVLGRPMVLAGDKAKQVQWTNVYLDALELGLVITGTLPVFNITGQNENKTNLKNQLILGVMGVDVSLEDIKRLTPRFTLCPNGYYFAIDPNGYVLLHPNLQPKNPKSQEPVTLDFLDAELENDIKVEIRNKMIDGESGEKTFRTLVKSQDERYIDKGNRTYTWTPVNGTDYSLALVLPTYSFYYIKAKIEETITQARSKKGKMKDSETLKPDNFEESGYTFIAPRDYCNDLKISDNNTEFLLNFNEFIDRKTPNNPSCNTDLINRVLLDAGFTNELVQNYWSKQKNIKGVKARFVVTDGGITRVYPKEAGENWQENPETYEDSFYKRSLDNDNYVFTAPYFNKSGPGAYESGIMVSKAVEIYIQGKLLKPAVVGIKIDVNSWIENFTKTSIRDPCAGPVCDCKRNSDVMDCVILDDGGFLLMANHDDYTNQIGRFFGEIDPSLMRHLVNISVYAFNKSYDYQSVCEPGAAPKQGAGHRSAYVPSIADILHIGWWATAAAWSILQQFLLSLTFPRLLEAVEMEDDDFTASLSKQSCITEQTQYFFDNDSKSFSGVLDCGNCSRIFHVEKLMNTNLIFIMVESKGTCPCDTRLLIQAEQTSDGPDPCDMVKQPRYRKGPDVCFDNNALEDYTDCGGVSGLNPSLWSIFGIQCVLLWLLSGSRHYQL

CC(C)C[C@H](CN)CC(=O)O [(S+)-3-isobutyl GABA]
Ki [1, 3]: 10.9 nM and 7.58 nM
Ki [1, 4]: 9.09 nM

CC(C)C[C@@H](CN)CC(=O)O [(R-)-3-isobtyl GABA, (R−)-3-Isobutyl GABA]
Ki [1, 3]: 157 nM and 207 nM
Ki [1, 4]: 180 nM

CC(C)C[C@H](N)C(=O)O [L-Leucine]
interaction with the [3H]gabapentin binding site [2]: competitive interaction
